Data set [1] can be described thus: Color and clarity of solution test. The settings on record: 0.5 g dissolved in 10 ml dilute ammonia solution (1→100). The class given is physicochemical. On the procedure:
“Color and clarity of solution test” is particularly important, and also a required inspection item for active ingredients used in preparations for injection. Weigh 0.5 g of the crystalline form A obtained in example 5, dissolve it with 10 ml dilute ammonia solution (1→100), and the solution may be clear and colorless. If the solution is colored, compare it with the yellow 2 #standard color solution (Method 1, General Principles 0901, the Chinese Pharmacopoeia), and the former should not be intensely colored than the latter. If the solution is turbid, compare it with the turbidity 0.5 #standard solution (Method 1, General Principles 0902, the Chinese Pharmacopoeia), and the former should not be more intensely turbid than the latter.

Data set [2] in a line: Measurement of particle size and specific surface area. It counts as physicochemical. The source says: For the purpose of this application, “X10” represents the particle diameter corresponding to 10% of the particle size distribution, in other words, cumulative 10% of the particles in all the tested particles are smaller than X10; “X50” represents the particle size corresponding to 50% of the particle size distribution, in other words, cumulative 50% of the particles in all the tested particles are smaller than X50; “X90” represents the particle size corresponding to 90% of the particle size distribution, in other words, cumulative 90% of the particles in all the tested particles are smaller than X90.
Sv and Sm denote specific surface areas, i.e., total surface area of a material per unit volume (Sv) and total surface area of a material per unit of mass (Sm) respectively.
Particle size distribution is determined according to the laser method using the instrument below: full-automatic dry-wet laser particle sizer, VIBRI (HELOSBR).

Data set [3] has as its system liver-injury animal models induced by different hepatotoxic agents. The settings on record: cited from earlier work.
[4] abbreviates: particle size distribution, laser method.
The mark [5] stands for this setting: liver-injury animal models induced by different hepatotoxic agents.

On to `CC1(C)[C@@H](O[C@H]2O[C@H](C(=O)[O-])[C@@H](O)[C@H](O)[C@H]2O[C@@H]2O[C@H](C(=O)[O-])[C@@H](O)[C@H](O)[C@H]2O)CC[C@]2(C)[C@H]3C(=O)C=C4[C@H]5C[C@@](C)(C(=O)O)CC[C@]5(C)CC[C@@]4(C)[C@]3(C)CC[C@@H]12.[Mg+2]` [crystalline form A, magnesium isoglycyrrhizinate], for which the clarity test entry in data set [1] (compared with turbidity 0.5# standard solution) was “The solution is clear, and less”. Besides, the “color of solution test” value in data set [1] (compared with yellow 2# standard color solution) was “The solution is colorless, and less”. In data set [2] (setting [4]), this molecule came in with an X10 of 6.19 μm, an X50 of 42.18 μm and an X90 of 91.80 μm. Moreover, the Sm in data set [2] (specific surface area per unit of mass) came to 0.64 m^2/g. In addition, in data set [2] (specific surface area per unit volume), the Sv came to 0.44 m^2/cm^3.
With `CC1(C)[C@@H](O[C@H]2O[C@H](C(=O)[O-])[C@@H](O)[C@H](O)[C@H]2O[C@@H]2O[C@H](C(=O)[O-])[C@@H](O)[C@H](O)[C@H]2O)CC[C@]2(C)[C@H]3C(=O)C=C4[C@H]5C[C@@](C)(C(=O)O)CC[C@]5(C)CC[C@@]4(C)[C@]3(C)CC[C@@H]12.[Mg+2]` [magnesium isoglycyrrhizinate], in data set [3] (setting [5]), the “hepatocyte degeneration and necrosis and inflammatory cell infiltration” value is recorded as “alleviate”; the hepatocyte regeneration result is reported as “promote”; the “serum transaminase elevation in animals” value is on record as “significantly inhibit”. Also, the “effect against liver injury compared with natural glycyrrhizic acids” value in data set [3] (versus natural glycyrrhizic acids) is listed as “obviously superior”.

These data come from patent US11292809B2, “Crystals of glycyrrhizic acid derivatives, crystalline compositions, pharmaceutical compositions and uses thereof” (CHIA TAI TIANQING PHARMACEUTICAL GROUP CO., LTD., priority 2018, dated 2022).
